# Entries after “also recorded” stand apart in the source; their conditions may differ.
# How the values were obtained:
# GlgX = GlgX (Streptomyces venezuelae, UniProt F2RAW5); test: Fluorescence polarization (FP) binding, wild-type GlgX; settings: FP, 1 nM fluoresceinated ligand, 25 °C
# From the text: (§1) Fig. 5 Structure of the S. venezuelae GlgX-c-di-GMP complex. a Ribbon diagram of the S. venezuelae GlgX-c-di-GMP complex with one GlgX subunit colored cyan and the other salmon. Shown as sticks are the c-di-GMP molecules bound at each end of the antiparallel dimer. […] There was clear density for each c-di-GMP molecule. b Close up of the GlgX-c-di-GMP binding interaction. Key residues mediating contacts to the c-di-GMP are shown as sticks and labeled. Hydrogen bonds from GlgX residues that specify binding to the guanine are indicated by yellow dashed lines. c Fluorescence polarization (FP) binding isotherm showing interaction of GlgX, GlgXE47A-R49A and GlgXR438A-R579A for F-c-di-GMP in red, green and blue respectively. Also shown is the binding isotherm for GlgX binding to F-c-di-AMP in black. […] The y-axis and x-axis are millipolarization (mP) units and GlgX concentration (μM), respectively. Shown are representative binding curves for each. The experiments were performed in technical triplicates and the error between measurements reported. Error bars represent SD of the measurements. Source data are provided in the Source data file.
# Thus, we used this F-tagged c-di-GMP in fluorescence polarization (FP) studies to quantify the interaction between GlgX and c-di-GMP. […] To ensure that the presence of the fluorescent tag was not impacting the GlgX interaction with c-di-GMP we used microscale thermophoresis (MST) to quantify c-di-GMP binding to GlgX. […] But to further probe the structural model we created GlgXE47A-R49A and GlgXR438A-R579A mutants and performed FP studies with these proteins.
# To measure c-di-GMP binding to GlgX and GlgX mutants, 2′-O-(6-[Fluoresceinyl]aminohexylcarbamoyl)-cyclic diguanosine monophosphate (2′-Fluo-AHC-c-di-GMP) (BioLog), was used as a fluoresceinated reporter ligand. This molecule is conjugated via a nine atom spacer to one of the c-di-GMP 2′ hydroxyl groups. […] 2′-O-(6-[Fluoresceinyl]aminohexylcarbamoyl)-cyclic diadenosine monophosphate (2′-Fluo-AHC-c-di-AMP) (BioLog) was also used in binding studies to assess specificity of GlgX for c-di-GMP. […]
# GlgXE47A-R49A = test: Fluorescence polarization binding, GlgXE47A-R49A; parameters: species or system Streptomyces venezuelae
# Chain of GlgXE47A-R49A (as listed by the source, stated change not applied): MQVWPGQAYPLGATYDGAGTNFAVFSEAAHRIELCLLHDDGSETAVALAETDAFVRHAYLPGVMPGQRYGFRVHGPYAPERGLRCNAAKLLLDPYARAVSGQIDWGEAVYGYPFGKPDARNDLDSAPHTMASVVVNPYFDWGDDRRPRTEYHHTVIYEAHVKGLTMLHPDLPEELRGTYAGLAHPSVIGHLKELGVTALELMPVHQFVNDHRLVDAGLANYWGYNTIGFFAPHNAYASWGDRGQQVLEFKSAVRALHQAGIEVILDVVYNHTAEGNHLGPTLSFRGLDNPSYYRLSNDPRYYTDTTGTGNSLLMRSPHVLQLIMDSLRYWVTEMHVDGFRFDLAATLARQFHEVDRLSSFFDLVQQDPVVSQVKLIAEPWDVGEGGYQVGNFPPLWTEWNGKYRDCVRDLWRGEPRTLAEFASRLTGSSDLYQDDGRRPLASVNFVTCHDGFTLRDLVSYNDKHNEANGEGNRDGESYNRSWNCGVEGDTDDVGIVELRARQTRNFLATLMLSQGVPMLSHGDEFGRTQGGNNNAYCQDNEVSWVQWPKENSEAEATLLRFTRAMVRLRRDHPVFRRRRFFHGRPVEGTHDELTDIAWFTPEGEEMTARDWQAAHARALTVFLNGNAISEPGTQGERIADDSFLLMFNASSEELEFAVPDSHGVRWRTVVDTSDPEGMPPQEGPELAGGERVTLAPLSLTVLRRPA
# From the text: as §1, with “Error bars represent SD of the measurements. Source data are provided in the Source data file.” left out
# (§2) Thus, we used this F-tagged c-di-GMP in fluorescence polarization (FP) studies to quantify the interaction between GlgX and c-di-GMP. […] To ensure that the presence of the fluorescent tag was not impacting the GlgX interaction with c-di-GMP we used microscale thermophoresis (MST) to quantify c-di-GMP binding to GlgX. […]
# GlgXR438A-R579A = test: Fluorescence polarization binding, GlgXR438A-R579A; parameters: species or system Streptomyces venezuelae
# Chain of GlgXR438A-R579A (as listed by the source, stated change not applied): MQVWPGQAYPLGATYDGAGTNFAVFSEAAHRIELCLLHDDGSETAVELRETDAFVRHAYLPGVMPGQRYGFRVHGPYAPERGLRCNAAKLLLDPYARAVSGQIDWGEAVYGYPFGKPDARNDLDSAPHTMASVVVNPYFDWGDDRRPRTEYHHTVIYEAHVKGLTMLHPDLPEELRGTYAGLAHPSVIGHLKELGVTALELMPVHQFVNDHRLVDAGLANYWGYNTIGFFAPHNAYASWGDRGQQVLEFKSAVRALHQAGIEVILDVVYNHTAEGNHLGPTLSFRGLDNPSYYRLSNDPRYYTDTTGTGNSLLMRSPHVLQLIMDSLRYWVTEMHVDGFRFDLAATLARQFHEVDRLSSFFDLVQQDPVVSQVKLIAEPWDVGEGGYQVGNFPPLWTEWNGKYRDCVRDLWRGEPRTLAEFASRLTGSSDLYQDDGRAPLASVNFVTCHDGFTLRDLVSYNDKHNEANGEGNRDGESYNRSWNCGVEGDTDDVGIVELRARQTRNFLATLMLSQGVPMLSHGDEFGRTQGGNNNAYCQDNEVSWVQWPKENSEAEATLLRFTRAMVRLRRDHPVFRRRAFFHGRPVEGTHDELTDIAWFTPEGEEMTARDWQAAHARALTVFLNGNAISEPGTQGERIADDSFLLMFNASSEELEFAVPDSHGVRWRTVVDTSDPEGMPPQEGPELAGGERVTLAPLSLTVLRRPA
# From the text: as §1, with “Error bars represent SD of the measurements. Source data are provided in the Source data file.” left out
# as §2
# His6-GlgX = test: DRaCALA with [32P]-c-di-GMP, wild-type GlgX; type: binding, Streptomyces venezuelae; settings: excess (100 µM) unlabeled nucleotide
# Procedure: (§3) Fig. 1 GlgX binds c-di-GMP. a Quantification of c-di-GMP in S. venezuelae cell extracts using LC-MS/MS. Cells were harvested during late vegetative growth (8–10 h), transition to sporulation (12–16 h), and sporulation (18–20 h). Data are presented as the mean of biological replicates ±SD (n = 3). […] Source data are provided in the Source data file. c [^32P]-c-di-GMP binds to GlgX in DRaCALA assay indicated by dark spots in the center of the nitrocellulose membrane. For competition, excess (100 µM) of unlabeled c-di-GMP, c-di-AMP, or GTP was added to the reaction containing [^32P]-c-di-GMP and GlgX.
# To determine if the interaction between Vnz29170 (herein called GlgX) and c-di-GMP is direct, we purified an N-terminally His6-tagged GlgX protein and performed nano differential scanning fluorimetry (nanoDSF) thermal shift assays. […] In addition, we used differential radial capillary action of ligand assays (DRaCALA), which allows visualization of protein-bound radiolabeled ligand as a central spot after the application of the protein-ligand mix onto nitrocellulose. Using DRaCALA we confirmed that GlgX from S. venezuelae binds ^32P-labeled c-di-GMP.
# For DRaCALA assays, purified His6-GlgX (15 μg) was mixed with 0.5 μl undiluted [^32P]-c-di-GMP (42 nM) (Hartmann Analytic GmbH, Braunschweig) in binding buffer (25 mM Tris pH 8; 150 mM NaCl; 2.5% (v/v) glycerol; 5 mM MgCl2) and the reaction was incubated at rt for 5 min. For competition assays, 100 μM nonlabeled nucleotides were added to the samples and incubated at rt for 5 min prior to the addition of [^32P]-c-di-GMP. Reactions (10 μl) were spotted on the same nitrocellulose membrane (Roth), air dried for 10 min and analyzed via phosphorimaging.
# His6-GlgX (Vnz29170) = test: nanoDSF label-free thermal shift assay, wild-type GlgX; type: binding, Streptomyces venezuelae; settings: 10 µM GlgX, 1 mM c-di-AMP
# Procedure: as §3
# To determine if the interaction between Vnz29170 (herein called GlgX) and c-di-GMP is direct, we purified an N-terminally His6-tagged GlgX protein and performed nano differential scanning fluorimetry (nanoDSF) thermal shift assays. […]
# For label-free thermal shift assay experiments, 10 μM purified protein in 25 mM Tris pH 8, 150 mM NaCl, 2.5% (v/v) glycerol, and 5 mM MgCl2 was incubated without or with (1 mM) of nonlabeled c-di-GMP or c-di-AMP, respectively, at rt for 10 min. Reactions were subsequently analyzed in a Tycho NT.6 (NanoTemper Technologies) device with a 30 K/min thermal ramp and the internal fluorescence at 330 and 350 nm was recorded. […]
# [1] = target: S. venezuelae glycogen debranching enzyme GlgX (Vnz29170) (S. venezuelae); test: crystal structure; GlgX with 3 mM c-di-GMP, 3.34 Å; 40% ethylene glycol, 0.1 M sodium acetate pH 4.6; two GlgX dimers in the asymmetric unit
# Chain of GlgX (F2RAW5 entry or part of it): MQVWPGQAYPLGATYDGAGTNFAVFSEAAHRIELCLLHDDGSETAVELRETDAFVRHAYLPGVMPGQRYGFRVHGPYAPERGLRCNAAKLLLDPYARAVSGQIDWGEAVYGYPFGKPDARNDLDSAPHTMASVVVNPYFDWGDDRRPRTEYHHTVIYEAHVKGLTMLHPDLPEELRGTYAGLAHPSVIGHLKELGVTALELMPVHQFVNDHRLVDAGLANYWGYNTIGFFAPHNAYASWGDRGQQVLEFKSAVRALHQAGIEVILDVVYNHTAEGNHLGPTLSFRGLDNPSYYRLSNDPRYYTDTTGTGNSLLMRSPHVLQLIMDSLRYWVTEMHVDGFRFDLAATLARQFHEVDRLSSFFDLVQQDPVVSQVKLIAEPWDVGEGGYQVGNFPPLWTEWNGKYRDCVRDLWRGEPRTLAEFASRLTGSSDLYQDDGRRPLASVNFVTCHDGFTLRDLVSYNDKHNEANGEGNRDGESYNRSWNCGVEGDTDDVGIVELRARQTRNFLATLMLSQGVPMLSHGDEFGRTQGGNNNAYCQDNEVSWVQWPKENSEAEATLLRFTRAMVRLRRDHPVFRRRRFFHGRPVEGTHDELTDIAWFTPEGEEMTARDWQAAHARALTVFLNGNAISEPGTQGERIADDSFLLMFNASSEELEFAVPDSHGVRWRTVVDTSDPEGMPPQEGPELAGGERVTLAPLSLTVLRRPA
molecule,measurement,setting,value
2′-O-(6-[Fluoresceinyl]aminohexylcarbamoyl)-cyclic diadenosine monophosphate [F-c-di-AMP],binding to WT GlgX in FP,GlgX,did not bind; also recorded: essentially no binding
2′-O-(6-[Fluoresceinyl]aminohexylcarbamoyl)-cyclic diguanosine monophosphate [F-c-di-GMP],Kd,"GlgX; WT GlgX titrated, pH 7.5, read-out: Kd",8.2 ± 1 µM
same,binding to mutant in FP,GlgXE47A-R49A,nonsaturable binding
same,binding to mutant in FP,GlgXR438A-R579A,nonsaturable binding
Nc1nc2c(ncn2[C@@H]2O[C@H](COP(=O)(O)OP(=O)(O)OP(=O)(O)O)[C@@H](O)[C@H]2O)c(=O)[nH]1 [GTP],competition with 32P-c-di-GMP for binding to GlgX,His6-GlgX,not c-di-AMP or GTP competed
Nc1ncnc2c1ncn2[C@@H]1O[C@@H]2COP(=O)(O)O[C@H]3[C@@H](O)[C@H](n4cnc5c(N)ncnc54)O[C@@H]3COP(=O)(O)O[C@H]2[C@H]1O [c-di-AMP],effect of ligand on melting point of His6-GlgX,His6-GlgX (Vnz29170),no effect
same,competition with 32P-c-di-GMP for binding to GlgX,His6-GlgX,not c-di-AMP or GTP competed
S. venezuelae glycogen debranching enzyme GlgX (Vnz29170),stoichiometry N,[1],2

# Reference: article PMC9530166, “Allosteric regulation of glycogen breakdown by the second messenger cyclic di-GMP” (Nature Communications, 2022)
